Patent publication US10525055B2, “Opioid receptor antagonist prodrugs” (Nirsum Laboratories, Inc., priority 2017, dated 2020)

Key:
[1] = Polymorph screening of solid state drug substances; conditions: for XRPD results (Dried): stirred 50 °C 72 hours, solids dried; for Visual observation 50° C. / Visual observation RT: target conc. 100 mg/ml
[2] = Solubility determination in oil (cottonseed oil, sesame oil)
Protocol: A known amount of test substance (˜40 mg) was weighed into the vial, 100 μL of oil was added and heated to 60° C. and then system was slurried to reach equilibrium. […] Extra oil was added into the vial once compound precipitated out and then the system was re-equilibrated at 1000 rpm at room temperature (25° C.). Final concentration was determined by HPLC method as described below in Table 6a and 6b.

[3] = Plasma stability assay, rat plasma; assay type: in vitro ADME; conditions: 37° C., 10 μM
Protocol: Plasma stability determination of the test compounds in rat, dog, cynomolgus monkey and human plasma is performed using HPLC-MS. For rat, incubations are carried out in 96-well polypropylene plates in 5 aliquots of 70 μL each (one for each time point). […] Five time points are analyzed (0, 15, 120, 480 and 1440 min). For dog, monkey and human, test compounds (2 μM, final solvent concentration 1%) were also incubated at 37° C. and analyzed at five time points (0, 10, 30, 60 and 120 min). All incubations are performed in duplicates. The samples are analyzed by HPLC-MS. The percentage of parent compound remaining after incubation in plasma is determined.

[4] = heating temp. 60 °C, obs. temp. 40 °C
[5] = heating temp. 60 °C, obs. temp. 25 °C
[6] = heating temp. 40 °C, obs. temp. 40 °C

Compound	% remaining at time point in minutes, 0 min [3]	% remaining at time point in minutes, 15 min [3]	% remaining at time point in minutes, 120 min [3]	% remaining at time point in minutes, 480 min [3]	% remaining at time point in minutes, 1440 min [3]	Approximate Solubility (mg/mL) in Excipient: Sesame oil [2, 5]	also measured
C=C1CC[C@@]2(O)C3Cc4ccc(OC(=O)CCCCCCCCCCCCCCCCCCC)c5c4[C@@]2(CCN3CC2CC2)[C@H]1O5 [Compound 16, (4aS,7aS,12bS)-3-(cyclopropylmethyl)-4a-hydroxy-7-methylene-2,3,4,4a,5,6,7,7a-octahydro-1H-4,12-methanobenzofuro[3,2-e]isoquinolin-9-yl icosanoate]	–	–	–	–	–	–	XRPD results (Dried) ([1]; Acetone): Pattern A; Visual observation 50° C. ([1]; Acetone): Clear; Visual observation RT ([1]; Acetone): Slurry; XRPD results (Dried) ([1]; EtOAc): Pattern A; Visual observation 50° C. ([1]; EtOAc): Clear; Visual observation RT ([1]; EtOAc): Slurry; XRPD results (Dried) ([1]; Heptane): Pattern A; Visual observation 50° C. ([1]; Heptane): Slurry; Visual observation RT ([1]; Heptane): Slurry; XRPD results (Dried) ([1]; Isopropanol): Pattern A; Visual observation 50° C. ([1]; Isopropanol): Slurry; Visual observation RT ([1]; Isopropanol): Slurry; XRPD results (Dried) ([1]; MTBE): Pattern A; Visual observation 50° C. ([1]; MTBE): Clear; Visual observation RT ([1]; MTBE): Clear; Comment: stability of initial crystal form (pattern A) ([1]; polymorph screen over Heptane, MTBE, Isopropanol, EtOAc, Acetone): likely stable form. Same crystal form; Approximate Solubility (mg/mL) in Excipient: Sesame oil [2, 4]: 202 to 404 mg/mL
C=C1CC[C@@]2(O)C3Cc4ccc(OC(=O)OCCCCCCCC)c5c4[C@@]2(CCN3CC2CC2)[C@H]1O5 [Compound 17, (4aS,7aS,12bS)-3-(cyclopropylmethyl)-4a-hydroxy-7-methylene-2,3,4,4a,5,6,7,7a-octahydro-1H-4,12-methanobenzofuro[3,2-e]isoquinolin-9-yl octyl carbonate]	100%	0%	0%	0%	0%	–	Approximate Solubility (mg/mL) in Excipient: Cottonseed oil [2, 5]: >408 mg/mL
C=C1CC[C@@]2(O)C3Cc4ccc(OC(=O)CCCCCCC/C=C\C/C=C\C/C=C\CC)c5c4[C@@]2(CCN3CC2CC2)[C@H]1O5 [Compound 20, (4aS,7aS,12bS)-3-(cyclopropylmethyl)-4a-hydroxy-7-methylene-2,3,4,4a,5,6,7,7a-octahydro-1H-4,12-methanobenzofuro[3,2-e]isoquinolin-9-yl (9Z,12Z,15Z)-octadeca-9,12,15-trienoate]	–	–	–	–	–	–	Approximate Solubility (mg/mL) in Excipient: Sesame oil [2, 6]: >406 mg/mL
CCCCCCCC/C=C\CCCCCCCCCCCC(=O)Oc1ccc2c3c1O[C@H]1C(=O)CC[C@@]4(O)C(C2)N(CC2CC2)CC[C@]314 [Compound 22, (4aS,7aR,12bS)-3-(cyclopropylmethyl)-4a-hydroxy-7-oxo-2,3,4,4a,5,6,7,7a-octahydro-1H-4,12-methanobenzofuro[3,2-e]isoquinolin-9-yl (Z)-docos-13-enoate]	–	–	–	–	–	–	Approximate Solubility (mg/mL) in Excipient: Ethanol ([2]; Ethanol, heating temp. 60 °C, obs. temp. 40 °C): >397.7 mg/mL; Approximate Solubility (mg/mL) in Excipient: Sesame oil [2, 4]: >401.9 mg/mL
CCCCCCCCCCCCCCOC(=O)OCOc1ccc2c3c1O[C@H]1C(=O)CC[C@@]4(O)C(C2)N(CC2CC2)CC[C@]314 [Compound 27, (((4aS,7aR,12bS)-3-(cyclopropylmethyl)-4a-hydroxy-7-oxo-2,3,4,4a,5,6,7,7a-octahydro-1H-4,12-methanobenzofuro[3,2-e]isoquinolin-9-yl)oxy)methyl tetradecyl carbonate]	–	–	–	–	–	>399.2 mg/mL	–
C=C1CC[C@@]2(O)C3Cc4ccc(OC(=O)OCCCCCCCCCCCCCCCCCCCC)c5c4[C@@]2(CCN3CC2CC2)[C@H]1O5 [Compound 28, (4aS,7aS,12bS)-3-(cyclopropylmethyl)-4a-hydroxy-7-methylene-2,3,4,4a,5,6,7,7a-octahydro-1H-4,12-methanobenzofuro[3,2-e]isoquinolin-9-yl icosyl carbonate]	–	–	–	–	–	<50.6 mg/mL	–
C=C1CC[C@@]2(O)C3Cc4ccc(OC(=O)OCCCCCCCCCCCCCCCCCC)c5c4[C@@]2(CCN3CC2CC2)[C@H]1O5 [Compound 33, (4aS,7aS,12bS)-3-(cyclopropylmethyl)-4a-hydroxy-7-methylene-2,3,4,4a,5,6,7,7a-octahydro-1H-4,12-methanobenzofuro[3,2-e]isoquinolin-9-yl octadecyl carbonate]	–	–	–	–	–	<51 mg/mL	–
C=C1CC[C@@]2(O)C3Cc4ccc(OC(=O)CCCCCCC/C=C\CCCCCCCC)c5c4[C@@]2(CCN3CC2CC2)[C@H]1O5 [Compound 36, (4aS,7aS,12bS)-3-(cyclopropylmethyl)-4a-hydroxy-7-methylene-2,3,4,4a,5,6,7,7a-octahydro-1H-4,12-methanobenzofuro[3,2-e]isoquinolin-9-yl oleate]	100%	74.4%	66.3%	39.8%	19.1%	>408 mg/mL	Approximate Solubility (mg/mL) in Excipient: Cottonseed oil [2, 5]: >407 mg/mL; Approximate Solubility (mg/mL) in Excipient: Sesame oil [2, 6]: >411.6 mg/mL
C=C1CC[C@@]2(O)C3Cc4ccc(OC(=O)CCC5CCCC5)c5c4[C@@]2(CCN3CC2CC2)[C@H]1O5 [Compound 39, (4aS,7aS,12bS)-3-(cyclopropylmethyl)-4a-hydroxy-7-methylene-2,3,4,4a,5,6,7,7a-octahydro-1H-4,12-methanobenzofuro[3,2-e]isoquinolin-9-yl 3-cyclopentylpropanoate]	–	–	–	–	–	106 to 141 mg/mL	–
CC(C)(C)CC(=O)Oc1ccc2c3c1O[C@H]1C(=O)CC[C@@]4(O)C(C2)N(CC2CC2)CC[C@]314 [Compound 42, (4aS,7aR,12bS)-3-(cyclopropylmethyl)-4a-hydroxy-7-oxo-2,3,4,4a,5,6,7,7a-octahydro-1H-4,12-methanobenzofuro[3,2-e]isoquinolin-9-yl 3,3-dimethylbutanoate]	–	–	–	–	–	–	Approximate Solubility (mg/mL) in Excipient: Sesame oil [2, 6]: <52 mg/mL; Approximate Solubility (mg/mL) in Excipient: Sesame oil [2, 4]: <25.8 mg/mL
CCCCCCCCCCCCCCCC(=O)OCOc1ccc2c3c1O[C@H]1C(=O)CC[C@@]4(O)C(C2)N(CC2CC2)CC[C@]314 [Compound 49, (((4aS,7aR,12bS)-3-(cyclopropylmethyl)-4a-hydroxy-7-oxo-2,3,4,4a,5,6,7,7a-octahydro-1H-4,12-methanobenzofuro[3,2-e]isoquinolin-9-yl)oxy)methyl hexadecanoate]	–	–	–	–	–	<51 mg/mL	–
CCCCCCCCCCCCCCCCCCCC(=O)Oc1ccc2c3c1O[C@H]1C(=O)CC[C@@]4(O)C(C2)N(CC2CC2)CC[C@]314 [Compound 50, (4aS,7aR,12bS)-3-(cyclopropylmethyl)-4a-hydroxy-7-oxo-2,3,4,4a,5,6,7,7a-octahydro-1H-4,12-methanobenzofuro[3,2-e]isoquinolin-9-yl icosanoate]	100%	114.5%	102.7%	83.3%	73.9%	<52 mg/mL	–
CCCCCCCCCCCCCCCCCCCCCC(=O)Oc1ccc2c3c1O[C@H]1C(=O)CC[C@@]4(O)C(C2)N(CC2CC2)CC[C@]314 [Compound 51, (4aS,7aR,12bS)-3-(cyclopropylmethyl)-4a-hydroxy-7-oxo-2,3,4,4a,5,6,7,7a-octahydro-1H-4,12-methanobenzofuro[3,2-e]isoquinolin-9-yl docosanoate]	100%	107.4%	105.3%	88.2%	92.7%	–	–
CCCCC/C=C\C/C=C\CCCCCCCC(=O)Oc1ccc2c3c1O[C@H]1C(=O)CC[C@@]4(O)C(C2)N(CC2CC2)CC[C@]314 [Compound 53, (4aS,7aR,12bS)-3-(cyclopropylmethyl)-4a-hydroxy-7-oxo-2,3,4,4a,5,6,7,7a-octahydro-1H-4,12-methanobenzofuro[3,2-e]isoquinolin-9-yl (9Z,12Z)-octadeca-9,12-di.enoate]	100%	46.85%	19.6%	7.3%	1.9%	>401.9 mg/mL	Approximate Solubility (mg/mL) in Excipient: Cottonseed oil [2, 5]: >408.5 mg/mL; Approximate Solubility (mg/mL) in Excipient: Sesame oil [2, 4]: >406.3 mg/mL
Enalapril maleate salt [reference compound]	100%	44%	2.9%	8.2%	4.8%	–	–
